The experiment relates to L1210 leukemia ip in BDF1 mice, survival T/C. In words: NCI In Vivo Anticancer Drug Screen. Data for tumor model L1210 Leukemia (intraperitoneal) in B6D2F1 (BDF1) mice. Conditions: endpoint: mean survival time, higher = longer survival. The procedure, abridged:
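Antitumor effect is assessed in tumor-bearing animals. Survival in the compound arm is compared with a vehicle-dosed control arm and expressed as their quotient.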

Setting [1] is: dose: 100.0 mg/kg/injection, schedule: Q01DX001 (ip), vehicle: saline.
[2] abbreviates: dose: 200.0 mg/kg/injection, schedule: Q01DX001 (ip), vehicle: saline.
Where [3] appears, read: dose: 400.0 mg/kg/injection, schedule: Q01DX001 (ip), vehicle: saline.
Setting [4] is: dose: 100.0 mg/kg/injection, schedule: Q01DX009 (ip), vehicle: Klucel (hydroxypropylcellulose) (HPC).
Where [5] appears, read: dose: 100.0 mg/kg/injection, schedule: Q04DX003 (ip), vehicle: Klucel (hydroxypropylcellulose) (HPC).
Setting [6] is: dose: 200.0 mg/kg/injection, schedule: Q01DX009 (ip), vehicle: Klucel (hydroxypropylcellulose) (HPC).
Where [7] appears, read: dose: 200.0 mg/kg/injection, schedule: Q04DX003 (ip), vehicle: Klucel (hydroxypropylcellulose) (HPC).
Setting [8] is: dose: 400.0 mg/kg/injection, schedule: Q01DX009 (ip), vehicle: Klucel (hydroxypropylcellulose) (HPC).
Where [9] appears, read: dose: 400.0 mg/kg/injection, schedule: Q04DX003 (ip), vehicle: Klucel (hydroxypropylcellulose) (HPC).
[10] abbreviates: dose: 75.0 mg/kg/injection, schedule: Q01DX001 (ip), vehicle: saline.
Where [11] appears, read: dose: 400.0 mg/kg/injection, schedule: Q04DX003 (ip), vehicle: saline with Tween-80.

17 molecules from PubChem BioAssay AID248 (DTP/NCI, 2004) can be followed below.

Toxic doses and inconclusive results are not listed.

Consider `O=C(O)CCN1C(=O)CCC1=O`, for which the T/C was 91 % of control (dose: 100.0 mg/kg/injection, schedule: Q01DX009 (ip), vehicle: saline); 105 % of control (dose: 100.0 mg/kg/injection, schedule: Q04DX003 (ip), vehicle: saline sonified); 94 % of control (dose: 200.0 mg/kg/injection, schedule: Q01DX009 (ip), vehicle: saline); 92 % of control (dose: 200.0 mg/kg/injection, schedule: Q04DX003 (ip), vehicle: saline sonified); 105 % of control (dose: 400.0 mg/kg/injection, schedule: Q01DX009 (ip), vehicle: saline); 95 % of control (dose: 400.0 mg/kg/injection, schedule: Q04DX003 (ip), vehicle: saline sonified).
Regarding `CCCCOC(=O)c1nc[nH]c1[N+](=O)[O-]`, the T/C was 93 % of control (dose: 100.0 mg/kg/injection, schedule: Q01DX001 (ip), vehicle: other); 101 % of control (dose: 200.0 mg/kg/injection, schedule: Q01DX001 (ip), vehicle: other); 101 % of control (dose: 400.0 mg/kg/injection, schedule: Q01DX001 (ip), vehicle: other).
Regarding `CC(C)(C)NC(c1ccccc1)C(NC(C)(C)C)c1ccccc1` (stereo unspecified), the T/C is 91 % of control (dose: 50.0 mg/kg/injection, schedule: Q01DX001 (ip), vehicle: saline with Tween-80); 91 % of control (dose: 100.0 mg/kg/injection, schedule: Q01DX001 (ip), vehicle: saline with Tween-80); 94 % of control (dose: 200.0 mg/kg/injection, schedule: Q01DX001 (ip), vehicle: saline with Tween-80).
Regarding `O=C(OCc1cnccn1)c1cnccn1`, the T/C is 107 % of control under setting [1], 94 % of control under setting [2] and 100 % of control under setting [3].
With `COc1cc(N=Nc2ccc([N+](=O)[O-])cc2)c(OC)cc1N`, the T/C is 98 % of control (dose: 5.0 mg/kg/injection, schedule: Q01DX001 (ip), vehicle: other); 101 % of control (dose: 10.0 mg/kg/injection, schedule: Q01DX001 (ip), vehicle: other); 98 % of control (dose: 20.0 mg/kg/injection, schedule: Q01DX001 (ip), vehicle: other); 101 % of control (dose: 40.0 mg/kg/injection, schedule: Q01DX001 (ip), vehicle: other).
For the molecule `O=C1c2ccccc2-c2cc([N+](=O)[O-])c(NC(=O)C(Cl)Cl)cc21`, the T/C reads like this: (dose: 100.0 mg/kg/injection, schedule: Q01DX001 (ip), vehicle: carboxymethylcellulose (CMC)) 96 % of control; (dose: 200.0 mg/kg/injection, schedule: Q01DX001 (ip), vehicle: carboxymethylcellulose (CMC)) 107 % of control; (dose: 400.0 mg/kg/injection, schedule: Q01DX001 (ip), vehicle: carboxymethylcellulose (CMC)) 102 % of control.
Turning to `c1ccc(NNC(c2ccccc2)(c2ccccc2)c2ccccc2)cc1`, the T/C reads like this: under setting [4], 101 % of control; under setting [5], 101 % of control; under setting [6], 98 % of control; under setting [7], 95 % of control; under setting [8], 92 % of control; under setting [9], 95 % of control.
Take `O=c1c2ccccc2nc2n1CCC2`: the T/C reads like this: (dose: 25.0 mg/kg/injection, schedule: Q01DX001 (ip), vehicle: saline) 102 % of control; (dose: 50.0 mg/kg/injection, schedule: Q01DX001 (ip), vehicle: saline) 93 % of control; under setting [10], 104 % of control.
Take `O=C1c2c(c(O)c3ccccc3c2O)C(=O)C2CC=CCC12` (stereo unspecified): the T/C is 105 % of control (dose: 25.0 mg/kg/injection, schedule: Q01DX009 (ip), vehicle: saline with Tween-80); 110 % of control (dose: 50.0 mg/kg/injection, schedule: Q01DX009 (ip), vehicle: saline with Tween-80); 104 % of control (dose: 100.0 mg/kg/injection, schedule: Q01DX009 (ip), vehicle: saline with Tween-80); 104 % of control (dose: 200.0 mg/kg/injection, schedule: Q01DX009 (ip), vehicle: saline with Tween-80); 104 % of control (dose: 400.0 mg/kg/injection, schedule: Q01DX009 (ip), vehicle: saline with Tween-80).
Turning to `CCOC(=O)c1sc2ccc([N+](=O)[O-])cc2c1C`, the T/C under setting [1] is 93 % of control, the T/C under setting [2] is 95 % of control and the T/C under setting [3] is 104 % of control.
Consider `Nc1nc(SCc2ccccc2)nc2nc[nH]c12`, for which the T/C (dose: 50.0 mg/kg/injection, schedule: Q01DX001 (ip), vehicle: Klucel (hydroxypropylcellulose) (HPC)) was 91 % of control; the T/C (dose: 100.0 mg/kg/injection, schedule: Q01DX001 (ip), vehicle: Klucel (hydroxypropylcellulose) (HPC)) is 95 % of control; the T/C (dose: 200.0 mg/kg/injection, schedule: Q01DX001 (ip), vehicle: Klucel (hydroxypropylcellulose) (HPC)) is 93 % of control.
With `CC(C)CCCC(C)C1CCC2C3CC=C4CC(C5C(=O)NC(=O)NC5=O)CCC4(C)C3CCC12C` (stereo unspecified), the T/C is, setting by setting: (dose: 12.5 mg/kg/injection, schedule: Q04DX003 (ip), vehicle: saline with Tween-80) 96 % of control; (dose: 25.0 mg/kg/injection, schedule: Q04DX003 (ip), vehicle: saline with Tween-80) 96 % of control; (dose: 50.0 mg/kg/injection, schedule: Q04DX003 (ip), vehicle: saline with Tween-80) 87 % of control; under setting [11], 88 % of control.
`CC1(C)C=C(C(Br)c2cccc(Br)c2)C(=O)c2ccccc21` (stereo unspecified): the T/C was 101 % of control under setting [4]; 97 % of control under setting [5]; 100 % of control under setting [6]; 95 % of control under setting [7]; 102 % of control under setting [8]; 103 % of control under setting [9].
With `OCC1OC(n2cnc3c([Se])ncnc32)C(O)C1O` (stereo unspecified), for the setting “dose: 100.0 mg/kg/injection, schedule: Q01DX005 (ip), vehicle: saline”, the T/C was 105 % of control.
In the case of `NC(=S)N/N=C/c1ncccc1O`, the T/C reads like this: (dose: 1.8 mg/kg/injection, schedule: Q01DX Z (ip), vehicle: saline) 111 % of control; (dose: 2.7 mg/kg/injection, schedule: Q01DX Z (ip), vehicle: saline) 113 % of control; (dose: 4.1 mg/kg/injection, schedule: Q01DX Z (ip), vehicle: saline) 118 % of control; (dose: 6.25 mg/kg/injection, schedule: Q01DX015 (ip), vehicle: saline) 122 % of control; (dose: 6.25 mg/kg/injection, schedule: Q01DX Z (ip), vehicle: saline) 120 % of control; (dose: 12.5 mg/kg/injection, schedule: Q01DX Z (ip), vehicle: saline) 153 % of control. For the same molecule, the T/C (dose: 21.0 mg/kg/injection, schedule: Q03HX032 (ip), vehicle: saline with Tween-80) is 119 % of control; the T/C (dose: 25.0 mg/kg/injection, schedule: Q01DX015 (ip), vehicle: saline) was 150 % of control; the T/C (dose: 25.0 mg/kg/injection, schedule: Q01DX Z (ip), vehicle: saline) was 159 % of control; the T/C (dose: 47.0 mg/kg/injection, schedule: Q03HX032 (ip), vehicle: saline with Tween-80) was 120 % of control; the T/C (dose: 50.0 mg/kg/injection, schedule: Q01DX Z (ip), vehicle: saline) is 170 % of control; the T/C (dose: 100.0 mg/kg/injection, schedule: Q01DX015 (ip), vehicle: saline) is 111 % of control. In addition, the T/C is, setting by setting: (dose: 100.0 mg/kg/injection, schedule: Q01DX Z (ip), vehicle: saline) 165 % of control; (dose: 100.0 mg/kg/injection, schedule: Q01DX Z (oral), vehicle: saline) 112 % of control; (dose: 150.0 mg/kg/injection, schedule: Q01DX Z (ip), vehicle: saline) 153 % of control; (dose: 200.0 mg/kg/injection, schedule: Q01DX015 (ip), vehicle: saline) 94 % of control; (dose: 335.0 mg/kg/injection, schedule: Q01DX Z (ip), vehicle: saline) 118 % of control; (dose: 335.0 mg/kg/injection, schedule: Q01DX Z (oral), vehicle: saline) 115 % of control. Moreover, the T/C (dose: 400.0 mg/kg/injection, schedule: Q01DX015 (ip), vehicle: saline) is 90 % of control.
As to `O=C1C(Br)(Br)CCCCC1(c1ccccc1)c1ccccc1`, the T/C was 101 % of control (dose: 100.0 mg/kg/injection, schedule: Q04DX003 (ip), vehicle: saline with Tween-80); 103 % of control (dose: 200.0 mg/kg/injection, schedule: Q04DX003 (ip), vehicle: saline with Tween-80); 87 % of control under setting [11].
For `CN1CCC2(C1)C1CC3CC(C1)CC2C3` (stereo unspecified), the T/C under setting [10] is 97 % of control.
